Source: patent publication US20260097047A1, “Small molecule inhibitors of the ribosome biogenesis factor NVL2” (Board of Regents, The University of Texas System, priority 2023, published 2026)
“And” between values parts separate entries of the source, which are not always exact repeats. Identical values can stand only once. Each block holds one compound with its values, some of them ahead of it.

What was measured:
HCT116 NVL^H304R cells = assay: Cell viability in HCT116 NVL^H304R knock-in cells; format: cell-based; conditions: Homo sapiens, HCT-116
Source text: From whole exome sequencing, we identified variants that were acquired during IAA-induced mutagenesis with the hypothesis that genes related to resistance will be mutated in multiple clones. Two genes contained acquired variants in at least 3 of the 15 selected clones: TERT, mutated in 3 of 15 clones, and NVL, mutated in all 15 clones. […] In sum, 57 out of 59 unique clones harbored NVL mutations. The majority of mutations clustered within the D1 AAA+ ATPase domain and frequently affecting the same codons. […]
HCT116 cells were transfected with TransIT-LT (Mirus #MIR2304) according to manufacturer's protocol with a guide RNA (either mock or NVL targeting) in the px330 vector (Addgene, #42230), and 10 nM single stranded deoxyoligonucleotide encoding a specific NVL mutation (see below for specific sequences). […] The resulting cells were evaluated by cresyl violet staining or collected and the relevant NVL mutations were analyzed by either amplicon or sanger sequencing.
Cell viability assay: In 96-well assay plates (Corning #2903), 2,000 cells were plated per well in 100 μL of medium and allowed to adhere overnight. […] Luminescence (CellTiter-Glo) was recorded using a Synergy 2 microplate reader (BioTek). […]

[1] = system: HCT116 control and p53 KO cells; assay: Cell death by loss in membrane permeability, HCT116 control and p53 KO cells; format: cell-based, human; conditions: five-day treatment
[2] = Pharmacokinetic studies in CD-1 female mice, intraperitoneal; format: in vivo, mouse
Method: (§1) Plasma exposure was dose-dependent up to 35 mg/kg (IP injection) reaching a maximum concentration at 17.86 μM. These levels exceed the anti-proliferative IC99 of MM927 in cells expressing either human or mouse NVL. In a subsequent pharmacodynamic (PD) study, we asked if we could assess on-target NVL inhibition via a subsequent p53 and/or p21 induction in tumor xenografts in mice treated with MM927. We implanted HCT116 NVL^WT and NVL^R403W cells subcutaneously on either flank of the mice and evaluated the levels of p53 and p21 in either tumor at various time points after IP administration of 35 mg/kg of MM927.
Pharmacokinetic studies were performed by dosing 6-7 week old CD-1 female mice with analog MM927 formulated as 10% DMSO/10% Kolliphor EL/10% Solutal/70% D5W via the intraperitoneal route. Animals were euthanized in groups of three, blood was obtained by cheek bleeds at each time point (0, 10, 30, 90, 180, 360, 960 and 1440 minutes post dose) using the anticoagulant ACD (acidified citrate dextrose) and plasma isolated by centrifugation. For the dose escalation study, mice were dosed with 20 mg/kg, 35 mg/kg, or 60 mg/kg and blood was collected at 10, 180, and 720 minutes post dose. […] The resulting supernatants were evaluated by LC-MS/MS using a Sciex (Framingham, MA) 4500 Triple Quad coupled to a Shimadzu (Columbia, MD) Prominence LC. Briefly, MM927 was detected in multiple reaction monitoring mode (MRM) using the (m+1) transition 488.059/176.1. […] The concentrations of drug in each time-point sample were quantified using Analyst software (Sciex). […] The limit of quantitation (LOQ) was defined as the lowest concentration at which back calculation yielded a concentration within 20% of theoretical and which was above the LOD. Cmax and AUC values were calculated using the noncompartmental analysis tool of Phoenix WinNonLin (Certara/Pharsight, Sunnyvale, CA).

[3] = system: p53 and p21 in HCT116 NVL^R403W tumors; assay: Pharmacodynamic study: p53 and p21 in HCT116 NVL^R403W xenograft tumors; format: in vivo, mouse; conditions: 35 mg/kg IP, opposing flank of same mice
Method: as §1
Pharmacodynamic study: Five million parental HCT116 cells or HCT116 NVL^R403W in a volume of 0.1 mL were implanted using a subcutaneous injection in the left and right side of four-to-eight-week-old male and female NSG mice, respectively. Tumor volumes were measured every 2 to 4 days with calipers. When the tumor diameter reached 0.5 cm in diameter, mice were dosed with 35 mg/kg MM927 or vehicle formulated as 10% DMSO/10% Kolliphor EL/10% Solutal/70% D5W and administered via the intraperitoneal route. At each time point (0, 3, 6, 12, 24 hours post dose), tumors were harvested and flash frozen for Western blot analysis for p53 and p21 as described.

IC50 (HCT116 NVL^H304R cells): 2.4 µM
Compound: COCCN1C(=O)c2ccccc2Sc2cc(NC(=O)c3ccoc3)ccc21 [MM017]
cell death in p53 KO versus control cells [1]: substantially lower in p53 KO cells

Compound: CC#CCN1C(=O)c2ccc(F)cc2Sc2cc(NC(=O)c3ccc4oc(=O)n(C)c4c3)ccc21 [MM927, N-(10-(But-2-yn-1-yl)-3-fluoro-11-oxo-10,11-dihydrodibenzo[b,f][1,4]thiazepin-7-yl)-3-methyl-2-oxo-2,3-dihydrobenzo[d]oxazole-5-carboxamide]
maximum plasma concentration ([2]; 35 mg/kg IP injection, dose escalation): 17.86 µM
half-life ([2]; female, CD-1, mouse, plasma, 10 mg/kg intraperitoneal (IP) injection, read-out: elimination half-life): 1.69 h
Cmax ([2]; female, CD-1, mouse, plasma, 10 mg/kg intraperitoneal (IP) injection, read-out: peak plasma levels (Cmax)): 2510 ng/mL and 5.15 µM
p53 and p21 in NVL^R403W tumor [3]: no change in p53 and p21
